Reference: patent publication US10399949B2, “NK1 receptor antagonist” (KISSEI PHARMACEUTICAL CO., LTD., priority 2015, dated 2019)

Legend:
[1] = molecular target: T1, human CYP3A4 (Homo sapiens, UniProt P08684); assay: Inhibitory effect on CYP3A4 (Luciferin-IPA); format: in vitro ADME; conditions: test compound 10 μM, 30-minutes pre-incubation, Luciferin-IPA 3 μM
T1 construct: purchased BD Biosciences
Procedure: Inhibitory Effect on CYP3A4
The dimethyl sulfoxide (DMSO) solution of the test compound with a concentration 1000 times higher than the evaluation concentration was prepared, and a reaction solution was prepared by diluting the solution. Enzyme reaction was performed by incubating in a potassium phosphate buffer solution (pH 7.4) containing 1 μM to 10 μM test compound, 3.2 mM magnesium chloride, 0.2 pmol human CYP3A4 (BD Biosciences), 0.5 mM reduced nicotinamide adenine dinucleotide phosphate (NADPH) and 3 μM Luciferin-IPA (Promega) at 37° C. for 10 minutes. The volume of the reaction solution was 50 μL/well. The 30-minutes pre-incubation group was incubated at 37° C. for 30 minutes before adding the substrate, the Luciferin-IPA solution (12.5 μL/well). At the end of the enzyme reaction, 50 μL/well of a Luciferin detection reagent (Promega) was added to the wells, and the plate was left at room temperature for 20 minutes. Then, the emission intensities were measured with Infinite M1000 (TECAN), and the enzyme activities (%) relative to the value of the group to which the test compound was not added. As a comparative example, aprepitant, which is an NK1 receptor antagonist, was tested in the same manner.
Test was measured by the above test method, and the results are shown in Table 9 when the concentration of the test compound was 10 μM. In the table, Ex. No. means the Example number, and Pre-incubation (30 min) (%) means the enzyme activities (%) of the 30-minutes pre-incubation groups using the test compounds.

[2] = molecular target: T2, human NK1 receptor (Homo sapiens, UniProt P25103); assay: Inhibitory effect on human NK1 receptor (substance P-induced increase in intracellular calcium concentration); format: cell-based; conditions: HEK-293T; substance P 0.1 μM; compound 1 μM; human NK1 receptor-expressing 293T cells; vehicle = 100%; read-out: SPRR (%) (Substance P-Response Remaining, intracellular calcium concentration)
T2 construct: expressed in transfected cells; host or cells: 293T cells (RIKEN), transient transfection with pcDNA3.1(-) plasmid
T2 sequence (P25103 whole entry): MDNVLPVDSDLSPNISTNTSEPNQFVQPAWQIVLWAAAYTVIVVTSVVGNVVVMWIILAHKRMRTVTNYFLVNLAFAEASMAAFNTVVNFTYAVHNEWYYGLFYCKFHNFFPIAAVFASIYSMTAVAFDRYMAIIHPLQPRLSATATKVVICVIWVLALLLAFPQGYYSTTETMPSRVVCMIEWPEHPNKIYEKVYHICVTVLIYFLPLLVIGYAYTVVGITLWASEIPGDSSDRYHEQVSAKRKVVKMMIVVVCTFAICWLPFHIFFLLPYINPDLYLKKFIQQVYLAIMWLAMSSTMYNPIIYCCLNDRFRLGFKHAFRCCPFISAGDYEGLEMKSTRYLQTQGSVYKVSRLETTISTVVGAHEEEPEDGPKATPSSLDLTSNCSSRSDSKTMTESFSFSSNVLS
Procedure: Inhibitory Effect on Human NK1 Receptor
(1) Preparation of Human NK1 Receptor-Expressing Cells
Human NK1 receptor-expressing cells were prepared by the same methods as those described in 2-3 and 2-4 of Test Example 1.
(2) Study on Inhibitory Effect on Increase in Intracellular Calcium Concentration
The human NK1 receptor-expressing cells were washed with 300 μL/well of a washing solution (20 mM HEPES/Hanks Balanced Salt Solution (HBSS) pH7.3). A fluorescent calcium indicator (Fluo-4 Direct Calcium Assay Kit, Life Technologies, containing 0.42 mM probenecid and 0.1% bovine serum albumin, prepared according to the protocol of the product) was added to the wells at 150 μL/well, and the plate was incubated at 37° C. for 30 minutes in an incubator. Then, DMSO solutions of a test compound, which were prepared at an 80-time higher concentration using 100% dimethyl sulfoxide (DMSO), were added to the wells at 2.5 μL/well (final concentrations of 0.1, 1 and 10 μM), and the solutions were mixed. Then, the plate was further incubated at 37° C. for 30 minutes in an incubator. After 30 minutes, the intracellular calcium concentrations were measured immediately.
The intracellular calcium concentrations were each measured as a fluorescent signal using FDSS® 7000 (Hamamatsu Photonics). A substance P (Peptide Institute, Inc.) solution which was prepared at 0.4 μM or 4 μM using an assay buffer (20 mM HEPES/Hanks Balanced Salt Solution (HBSS) pH 7.3 containing 0.1% bovine serum albumin) was added automatically to each well at 50 μL/well (final concentration of 0.1 or 1 μM) 10 seconds after starting reading, and the fluorescent signal was measured up to 120 seconds.
The intracellular calcium concentration (%) of the cells to which a test compound was added was calculated by the equation below, where the fluorescent signal of the group to which the vehicle (DMSO) was added was regarded as 100%, and the fluorescent signal before the addition of substance P was regarded as 0%. Intracellular calcium concentration (%)=(Fluorescent signal of test compound addition group)/(Fluorescent signal of vehicle addition group)×100
The intracellular calcium concentration (%) calculated was regarded as the remaining agonist activity of substance P (Substance P-Response Remaining: SPRR). In the table, Ex. No. means the Example number. SPRR (%) means the value obtained when the concentration of substance P was 0.1 μM and the concentration of the compound was 1 μM.

[3] = molecular target: T3, NK1 receptor (Meriones unguiculatus, UniProt Q5DUB1); assay: Effect on foot-tapping induced by NK1 receptor agonist GR73632 in gerbil; format: in vivo; conditions: male gerbil; 0.3 mg/kg from the jugular vein; GR73632 into the cerebral ventricle after 4 hours; foot-tapping period during 30 minutes
T3 construct: from tissue; host or cells: living male gerbil, central nervous system
T3 sequence (Q5DUB1 whole entry): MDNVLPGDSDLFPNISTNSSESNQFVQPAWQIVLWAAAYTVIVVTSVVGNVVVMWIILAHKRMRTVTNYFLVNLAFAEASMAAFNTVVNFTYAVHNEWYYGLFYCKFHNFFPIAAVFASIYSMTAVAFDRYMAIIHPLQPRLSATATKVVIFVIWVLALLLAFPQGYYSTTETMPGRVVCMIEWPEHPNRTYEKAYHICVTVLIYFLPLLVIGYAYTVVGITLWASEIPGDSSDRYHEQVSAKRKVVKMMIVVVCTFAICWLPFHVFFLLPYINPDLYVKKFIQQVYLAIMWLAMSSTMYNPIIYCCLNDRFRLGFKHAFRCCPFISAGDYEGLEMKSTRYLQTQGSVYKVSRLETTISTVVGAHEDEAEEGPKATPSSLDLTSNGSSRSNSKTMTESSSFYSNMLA
Procedure: (1) Effect on Foot-tapping
The test compound solution was prepared by dissolving the test compound in a vehicle (a mixture of 50% N,N-dimethylacetamide (Wako Pure Chemical Industries), 30% propylene glycol (Wako Pure Chemical Industries), 4% 2-hydroxypropyl-β-cyclodextrin (Wako Pure Chemical Industries) and 16% distilled water).
A male gerbil (Japan SLC) was anesthetized with isoflurane, and 0.3 mg/kg of a test compound was administered from the jugular vein. After 4 hours, GR73632 (5 pmol/5 μL saline), which is an NK1 receptor agonist, was administered into the cerebral ventricle at the part 1 mm lateral to and 4.5 mm below the bregma in the head, under anesthesia with isoflurane. After the administration, the gerbil was moved to an observation cage, and the foot-tapping period during 30 minutes after the recovery of the righting reflex was measured. As a comparative example, aprepitant, which is an NK1 receptor antagonist, was tested in the same manner. The foot-tapping inhibition rate (%) of each test compound was calculated by the following equation. Foot-tapping inhibition rate (%)={1−(Foot-tapping period when test compound was administered)/(Foot-tapping period when solvent was administered)}×100 (2) Measurement of Drug Concentrations
In the table, Ex. No. means the Example number. Inhibition (%) means the foot-tapping inhibition rate, and Conc. […]

T1 sequence (P08684 whole entry): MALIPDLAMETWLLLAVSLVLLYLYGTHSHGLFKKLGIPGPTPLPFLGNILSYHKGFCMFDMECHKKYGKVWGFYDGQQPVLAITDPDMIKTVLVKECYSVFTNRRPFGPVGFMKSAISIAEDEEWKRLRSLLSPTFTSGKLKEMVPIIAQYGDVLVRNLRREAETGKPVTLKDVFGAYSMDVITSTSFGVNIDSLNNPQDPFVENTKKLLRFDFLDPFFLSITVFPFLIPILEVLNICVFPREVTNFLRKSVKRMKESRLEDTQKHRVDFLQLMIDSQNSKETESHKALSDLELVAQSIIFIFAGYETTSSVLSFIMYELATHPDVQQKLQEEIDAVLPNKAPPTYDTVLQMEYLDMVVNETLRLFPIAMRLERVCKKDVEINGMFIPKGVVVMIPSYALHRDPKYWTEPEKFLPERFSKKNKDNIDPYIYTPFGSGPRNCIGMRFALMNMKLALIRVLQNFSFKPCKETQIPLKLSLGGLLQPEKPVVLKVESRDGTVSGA

| Preincubation (30 min) (%) (enzyme activities relative to group without test compound) [1] | remaining activity at 1 µM [2] | Inhibition(%) (foot-tapping inhibition rate) [3] | SMILES |
| --- | --- | --- | --- |
| 18% | 2.1% | 100% | Cc1cc(F)ccc1[C@H]1CN(C[C@H]2CC[C@@H](CC(=O)O)CC2)CCN1C(=O)N(C)[C@H](C)c1cc(C(F)(F)F)cc(C(F)(F)F)c1 [Example 4, cis-{4-[(S)-4-{[(R)-1-(3,5-Bistrifluoromethylphenyl)ethyl]methylcarbamoyl}-3-(4-fluoro-2-methylphenyl)piperazin-1-ylmethyl]cyclohexyl}acetic acid] |
| 21% | 8.9% | 100% | Cc1cc(F)ccc1[C@H]1CN(C[C@H]2CC[C@H](CC(=O)O)CC2)CCN1C(=O)N(C)[C@H](C)c1cc(C(F)(F)F)cc(C(F)(F)F)c1 [Example 5, trans-{4-[(S)-4-{[(R)-1-(3,5-Bistrifluoromethylphenyl)ethyl]methylcarbamoyl}-3-(4-fluoro-2-methylphenyl)piperazin-1-ylmethyl]cyclohexyl}acetic acid] |
